From US20230416227A1, “PLASMA KALLIKREIN INHIBITORS” (Merck Sharp & Dohme LLC, priority 2020, published 2023)

Biological target: T1, Human plasma kallikrein (Homo sapiens, UniProt P03952)
T1 construct: yields a heavy chain (371 amino acids) and a light chain (248 amino acids); purchased Enzyme Research Laboratories
Assay: Plasma Kallikrein Assay
Type: biochemical
Conditions: purified Human plasma kallikrein 0.5 nM, substrate Acetyl-K-P-R-AFC, pH 7.4
Protocol: The effectiveness of a compound of the present invention as an inhibitor of plasma kallikrein can be determined using a relevant purified serine protease, and an appropriate synthetic substrate. The rate of hydrolysis of the chromogenic or fluorogenic substrate by the relevant serine protease was measured both in the absence and presence of compounds of the present invention. Assays were conducted at rt or at 37° C. […] A decrease in the rate of fluorescence change in the presence of inhibitor is indicative of enzyme inhibition. Such methods are known to one skilled in the art. The results of this assay are expressed as the half-maximal inhibitory concentrations (IC50), or the inhibitory constant, Ki.
Plasma kallikrein determinations were made in 50 mM HEPES buffer at pH 7.4 containing 150 mM NaCl, 5 mM CaCl2), and 0.1% PEG 8000 (polyethylene glycol; Fisher Scientific). […]
Times required to achieve equilibration between enzyme and inhibitor were determined in control experiments. The reactions were performed under linear progress curve conditions and fluorescence increase measured at 405 Ex/510 Em nm. […] IC50 was determined by inflection point from a four parameter logistic curve fit. Ki was calculated using the Cheng Prusoff equation, Ki=IC50/(1+([S]/Km)).

T1 sequence (P03952 391-638 limits assumed): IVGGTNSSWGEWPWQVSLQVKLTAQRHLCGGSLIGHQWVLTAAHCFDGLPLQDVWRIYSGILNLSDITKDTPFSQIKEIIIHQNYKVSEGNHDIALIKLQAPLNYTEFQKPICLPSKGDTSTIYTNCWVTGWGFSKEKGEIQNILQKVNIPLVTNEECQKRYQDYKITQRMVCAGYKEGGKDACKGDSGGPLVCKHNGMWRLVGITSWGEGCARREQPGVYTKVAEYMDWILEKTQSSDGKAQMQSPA
T1 sequence (P03952 20-390 partner limits assumed): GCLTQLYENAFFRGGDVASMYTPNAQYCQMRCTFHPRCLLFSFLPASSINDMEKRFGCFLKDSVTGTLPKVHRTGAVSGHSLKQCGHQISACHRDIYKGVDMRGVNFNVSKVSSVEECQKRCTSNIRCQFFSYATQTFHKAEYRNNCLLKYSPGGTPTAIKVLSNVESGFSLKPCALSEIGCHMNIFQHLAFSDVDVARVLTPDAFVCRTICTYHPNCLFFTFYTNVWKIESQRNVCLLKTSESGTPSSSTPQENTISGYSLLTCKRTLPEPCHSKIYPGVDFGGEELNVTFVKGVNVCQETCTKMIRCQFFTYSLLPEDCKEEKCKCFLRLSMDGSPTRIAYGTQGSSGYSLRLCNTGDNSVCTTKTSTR

| IC50 [nM] | Structure (SMILES) |
| --- | --- |
| 153 | Cc1cc(N2CCC2)ncc1[C@@H](C)n1cc(NC(=O)c2cncc(-c3c(C(F)F)ccc(Cl)c3F)n2)cn1 (single isomer, unassigned) [Example 67] |
| 19.5 | O=C(Nc1cnn(Cc2ccc(N3CCC4OCCC43)nc2)c1)c1cncc(-c2c(C(F)F)ccc(Cl)c2F)n1 (single isomer, unassigned) [Example 122, 6-(3-Chloro-6-(difluoromethyl)-2-fluorophenyl)-N-(1-((6-((3aR,6aR or 3aS,6aS)-hexahydro-4H-furo[3,2-b]pyrrol-4-yl)pyridin-3-yl)methyl)-1H-pyrazol-4-yl)pyrazine-2-carboxamide] |
| 45 | O=C(Nc1cnn(Cc2cnc(N3CCC4CC43)nc2)c1)c1cncc(-c2c(C(F)F)ccc(Cl)c2F)n1 (stereo not shown) [Example 108, N-(1-((2-(2-Azabicyclo[3.1.0]hexan-2-yl)pyrimidin-5-yl)methyl)-1H-pyrazol-4-yl)-6-(3-chloro-6-(difluoromethyl)-2-fluorophenyl)pyrazine-2-carboxamide] |
| 17.1 | N#Cc1ccc(Cl)c(F)c1-c1cncc(C(=O)Nc2cnn(Cc3ccc(N4CCC4)nc3)c2)n1 [Example 52, N-(1-((6-(Azetidin-1-yl)pyridin-3-yl)methyl)-1H-pyrazol-4-yl)-6-(3-chloro-6-cyano-2-fluorophenvl)pyrazine-2-carboxamide] |

More lines, now with the values behind:

| Structure (SMILES) | IC50 [nM] |
| --- | --- |
| CC(c1cnc(N2CC[C@H]2[C@@H](C)N2CC(C(C)(C)O)C2)nc1)n1cc(NC(=O)c2cncc(-c3c(C(F)F)ccc(Cl)c3F)n2)cn1 (stereo partly drawn) [Example 191, 6-(3-Chloro-6-(difluoromethyl)-2-fluorophenyl)-N-(1-(1-(2-((S)-2-((R)-1-(3-(2-hydroxypropan-2-yl)azetidin-1-yl)ethyl)azetidin-1-yl)pyrimidin-5-yl)ethyl)-1H-pyrazol-4-yl)pyrazine-2-carboxamide] | 1.1 |
| CC(c1cnc(N2CC[C@H]2CN2CC[C@@H](O)C[C@@H]2C)nc1)n1cc(NC(=O)c2cncc(-c3c(C(F)F)ccc(Cl)c3F)n2)cn1 (stereo partly drawn) [Example 178, 6-(3-Chloro-6-(difluoromethyl)-2-fluorophenyl)-N-(1-(1-(2-((S)-2-(((2S,4R)-4-hydroxy-2-methylpiperidin-1-yl)methyl)azetidin-1-yl)pyrimidin-5-yl)ethyl)-1H-pyrazol-4-yl)pyrazine-2-carboxamide] | 3.3 |
| N#Cc1ccc(Cl)c(F)c1-c1cncc(C(=O)Nc2cnn(Cc3cnc(N4CCC4)nc3)c2)n1 [Example 53, N-(1-((2-(Azetidin-1-yl)pyrimidin-5-yl)methyl)-1H-pyrazol-4-yl)-6-(3-chloro-6-cyano-2-fluorophenyl)pyrazine-2-carboxamide] | 30.7 |
| CC(c1cnc(N(C)CC(=O)N(C)C)nc1)n1cc(NC(=O)c2cncc(-c3c(C(F)F)ccc(Cl)c3F)n2)cn1 (stereo not shown) [Example 72, 6-(3-Chloro-6-(difluoromethyl)-2-fluorophenyl)-N-(1-(1-(2-((2-(dimethylamino)-2-oxoethyl)(methyl)amino)pyrimidin-5-yl)ethyl)-1H-pyrazol-4-yl)pyrazine-2-carboxamide] | 2.5 |
| CC(c1cnc(N2CCN(C)C(=O)C2)nc1)n1cc(NC(=O)c2cncc(-c3c(C(F)F)ccc(Cl)c3F)n2)cn1 (stereo not shown) [Example 95, 6-(3-Chloro-6-(difluoromethyl)-2-fluorophenyl)-N-(1-(1-(2-(4-methyl-3-oxopiperazin-1-yl)pyrimidin-5-yl)ethyl)-1H-pyrazol-4-yl)pyrazine-2-carboxamide] | 21.7 |
| CN(C)CCN(C)c1ncc(Cn2cc(NC(=O)c3cncc(-c4c(C(F)F)ccc(Cl)c4F)n3)cn2)cn1 [Example 98, 6-(3-Chloro-6-(difluoromethyl)-2-fluorophenyl)-N-(1-((2-((2-(dimethylamino)ethyl)(methyl)amino)pyrimidin-5-yl)methyl)-1H-pyrazol-4-yl)pyrazine-2-carboxamide] | 28.2 |
